Reference: patent EP0187355A1, “Process for preparing beta-lactam antibiotics” (E.R. Squibb & Sons, Inc., priority 1981, dated 1982)
Counter-ions that a name gives are not always drawn.

Experiments:
Test in all cases: MIC, agar dilution
Type in all cases: cell-based
[1] = test system: Enterobacter aerogenes, 10078; conditions: Klebsiella aerogenes, 10078, 18 h, Enterobacter aerogenes, 10078; K-10 agar, 10^4 CFU, 37°C, 18 hours; read-out: M.I.C.
Method: (§1) The following methodology is used to determine the minimum inhibitory concentration (hereinafter referred to as MIC) of the […] of this invention.
(§2) The test organisms are grown in approximately 15-20 ml of Antibiotic Assay broth (Difco) by inoculating (in tubes) the broth with a loopful of the organism from a BHI (Difco) agar slant. The inoculated tubes are incubated at 37°C for 18 to 20 hours. These cultures are assumed to contain 10^9 colony forming units (hereinafter CFU) per milliliter. The cultures are diluted 1:100 to give a final inoculum level of 10^4 CFU; dilutions are made with K-10 broth^*.
(§3) The compounds are dissolved in the appropriate diluent at a concentration of 1000 µg/ml. Twofold dilutions are made in K-10 broth resulting in a range from 1000 µg/ml to 0.5 µg/ml. 1.5 ml of each dilution is placed into individual square petri dishes to which 13.5 ml of K-10 agar^** is added. The final drug concentration in the agar ranges from 100 µg/ml to 0.05 µg/ml. Organism growth control plates containing agar only are prepared and inoculated before and after the test plates. The organisms are applied to the agar surface of each plate with the Denley Multipoint Inoculator (which delivers approximately 0.001 ml of each organism) resulting in a final inoculum level of 10^4 CFU on the agar surface.
(§4) The plates are incubated at 37 °C for 18 hours and the MIC's are determined. The MIC is the lowest concentration of compound inhibiting growth of the organism.
(§5) The tables that follow are tabulated results obtained when the B-lactams of this invention are tested against various organisms. The number following each organism refers to the number of the organism in the collection of E. R. Squibb & Sons,.Inc., Princeton, New Jersey. […] The symbol "N.T." means not tested.

[2] = test system: Serratia marcescens, 9783; conditions: Serratia marcescens, 9783, 18 h, K-10 agar, 10^4 CFU, 37°C, read-out: M.I.C.
Method: as §1, §2, §3, §4, §5

[3] = test system: Pseudomonas aeruginosa, 8329; conditions: K-10 agar, 10^4 CFU, 37°C, 18 hours, read-out: M.I.C.
Method: as §1, §2, §3, §4, §5

[4] = test system: Streptococcus faecalis, 9011; conditions: Enterococcus faecalis; Streptococcus faecalis, 9011; K-10 agar, 10^4 CFU, 37°C, 18 hours; read-out: M.I.C.
Method: as §1, §2, §3, §4, §5

Shigella sonnei, 8449 = conditions: Shigella sonnei, 8449, 18 h, K-10 agar, 10^4 CFU, 37°C
Method: as §1, §2, §3, §4, §5

[5] = test system: Pseudomonas aeruginosa, 9545; conditions: Pseudomonas aeruginosa, 9545, 18 h, K-10 agar, 10^4 CFU, 37°C, read-out: M.I.C.
Method: as §1, §2, §3, §4, §5

Escherichia coli, 8294 = conditions: Escherichia coli, 8294, 18 h, K-10 agar, 10^4 CFU, 37°C
Method: as §1, §2, §3, §4, §5

[6] = test system: Staphylococcus aureus, 10165; conditions: Staphylococcus aureus, 10165; K-10 agar, 10^4 CFU, 37°C, 18 hours; read-out: M.I.C.
Method: as §1, §2, §3, §4, §5

[7] = test system: Staphylococcus aureus, 2399; conditions: Staphylococcus aureus, 2399, 18 h, Staphylococcus aureus, 2399; K-10 agar, 10^4 CFU, 37°C, 18 hours; read-out: M.I.C.
Method: as §1, §2, §3, §4, §5

Proteus vulgaris, 9416 = conditions: K-10 agar, 10^4 CFU, 37°C, 18 hours, read-out: M.I.C.
Method: as §1, §2, §3, §4, §5

[8] = test system: Acinetobacter calcoaceticus, 8333; conditions: Acinetobacter calcoaceticus, 8333, 18 h, K-10 agar, 10^4 CFU, 37°C, read-out: M.I.C.
Method: as §1, §2, §3, §4, §5

Escherichia coli, 10896 = conditions: K-10 agar, 10^4 CFU, 37°C, 18 hours
Method: as §1, §2, §3, §4, §5

[9] = test system: Klebsiella aerogenes, 10440; conditions: K-10 agar, 10^4 CFU, 37°C, 18 hours, read-out: M.I.C.
Method: as §1, §2, §3, §4, §5

Salmonella typhosa, 1195 = conditions: Salmonella enterica, TYPHOSA, 18 h, K-10 agar, 10^4 CFU, 37°C
Method: as §1, §2, §3, §4, §5

Proteus rettgeri, 8479 = conditions: Providencia rettgeri, K-10 agar, 10^4 CFU, 37°C, 18 hours, read-out: M.I.C.
Method: as §1, §2, §3, §4, §5

[10] = test system: Klebsiella pneumoniae, 9527; conditions: Klebsiella pneumoniae, 9527, 18 h, K-10 agar, 10^4 CFU, 37°C, read-out: M.I.C.
Method: as §1, §2, §3, §4, §5

Escherichia coli, 10909 = conditions: K-10 agar, 10^4 CFU, 37°C, 18 hours
Method: as §1, §2, §3, §4, §5

[11] = test system: Staphylococcus aureus, 2400; conditions: Staphylococcus aureus, 2400; K-10 agar, 10^4 CFU, 37°C, 18 hours; read-out: M.I.C.
Method: as §1, §2, §3, §4, §5

Escherichia coli, 10857 = conditions: Escherichia coli, 10857, 18 h, K-10 agar, 10^4 CFU, 37°C
Method: as §1, §2, §3, §4, §5

Proteus mirabilis, 3855 = conditions: Proteus mirabilis, 3855, 18 h, K-10 agar, 10^4 CFU, 37°C, read-out: M.I.C.
Method: as §1, §2, §3, §4, §5

[12] = test system: Citrobacter freundii, 9518; conditions: K-10 agar, 10^4 CFU, 37°C, 18 hours, read-out: M.I.C.
Method: as §1, §2, §3, §4, §5

[13] = test system: Staphylococcus aureus, 1276; conditions: Staphylococcus aureus, 1276; K-10 agar, 10^4 CFU, 37°C, 18 hours; read-out: M.I.C.
Method: as §1, §2, §3, §4, §5

[14] = test system: Streptococcus agalactiae, 9287; conditions: Streptococcus agalactiae, 9287, 18 h, K-10 agar, 10^4 CFU, 37°C, read-out: M.I.C.
Method: as §1, §2, §3
(§6) The MIC is the lowest concentration of compound inhibiting growth of the organism.
(§7) The number following each organism refers to the number of the organism in the collection of E. R. Squibb & Sons,.Inc., Princeton, New Jersey. […] The symbol "N.T." means not tested.

[15] = test system: Enterobacter cloacae, 8236; conditions: Enterobacter cloacae, 8236, 18 h, K-10 agar, 10^4 CFU, 37°C
Method: as §1, §2, §3, §6, §7

Micrococcus luteus, 2495 = conditions: Micrococcus luteus, 2495, 18 h, K-10 agar, 10^4 CFU, 37°C, read-out: M.I.C.
Method: as §1, §2, §3, §6, §7

Row | SMILES | MIC [1] [µg/mL] | MIC [2] [µg/mL] | MIC [3] [µg/mL] | MIC [4] [µg/mL] | MIC (Shigella sonnei, 8449) [µg/mL] | MIC [5] [µg/mL] | MIC (Escherichia coli, 8294) [µg/mL] | MIC [6] [µg/mL] | MIC [7] [µg/mL] | MIC (Proteus vulgaris, 9416) [µg/mL] | MIC [8] [µg/mL] | MIC (Escherichia coli, 10896) [µg/mL] | MIC [9] [µg/mL] | MIC (Salmonella typhosa, 1195) [µg/mL] | MIC (Proteus rettgeri, 8479) [µg/mL] | MIC [10] [µg/mL] | MIC (Escherichia coli, 10909) [µg/mL] | MIC [11] [µg/mL] | MIC (Escherichia coli, 10857) [µg/mL] | MIC (Proteus mirabilis, 3855) [µg/mL] | further results
1 | CC1C(NC(=O)OCc2ccccc2)C(=O)N1S(=O)(=O)O (racemic) [Example 1, (±―cis)-4-Methyl-2-oxo-3-[[(phenylmethoxy)carbonyl]-amino]-1-azetidinesulfonic acid, potassium salt] | > 100 | > 100 | > 100 | > 100 | > 100 | > 100 | > 100 | 100 | 50 | > 100 | > 100 | > 100 | > 100 | > 100 | > 100 | > 100 | > 100 | 50 | > 100 | > 100 | MIC [12]: > 100 µg/mL; MIC [13]: 100 µg/mL; MIC [14]: 100 µg/mL; MIC [15]: > 100 µg/mL; MIC (Micrococcus luteus, 2495): > 100 µg/mL
2 | CC1C(NC(=O)Cc2ccccc2)C(=O)N1S(=O)(=O)O (racemic) [Example 4, (cis)-4-Methyl-2-oxo-3-[(phenylacetyl)amino]-1-azetidinesulfonic acid, potassium salt] | > 100 | > 100 | > 100 | > 100 | 100 | > 100 | 100 | 100 | 25 | > 100 | > 100 | 100 | > 100 | 100 | 100 | 100 | 50 | 50 | 50 | > 100 | MIC [12]: > 100 µg/mL; MIC [13]: 25 µg/mL; MIC [14]: 12.5 µg/mL; MIC [15]: > 100 µg/mL; MIC (Micrococcus luteus, 2495): 50 µg/mL
3 | CON=C(C(=O)NC1C(=O)N(S(=O)(=O)O)C1C)c1csc(N)n1 (racemic) [Example 7, [3α(Z),4α]-3-[[(2-Amino-4-thiazolyl) (methoxy-imino)acetyl]amino]-4-methyl-2-oxo-l-azetidinesulfonic acid, potassium salt] | 0.4 | 0.4 | > 100 | > 100 | 0.2 | 0.8 | 0.2 | > 100 | 100 | < 0.05 | 50 | 0.2 | 0.4 | < 0.05 | < 0.05 | 0.1 | 0.1 | 50 | < 0.05 | < 0.05 | MIC [12]: 0.2 µg/mL; MIC [13]: 100 µg/mL; MIC [14]: 3.1 µg/mL; MIC [15]: 0.2 µg/mL; MIC (Micrococcus luteus, 2495): 6.3 µg/mL
4 | CC1C(NC(=O)C(NC(=O)C(N)=O)c2cccs2)C(=O)N1S(=O)(=O)O (racemic) [Example 14, [3S-[3α(±),4β]]-3-[[[(aminooxoacetyl)amino]-2-thienylacetyl]amino]-4-methyl-2-oxo-1-azetidine-sulfonic acid, potassium salt] | 3.1 | 3.1 | 100 | > 100 | 0.8 | 3.1 | 1.6 | > 100 | 50 | 0.8 | 100 | 1.6 | 3.1 | 0.8 | 0.8 | 1.6 | 0.8 | 100 | 0.4 | 0.8 | MIC [12]: 1.6 µg/mL; MIC [13]: 50 µg/mL; MIC [14]: 3.1 µg/mL; MIC [15]: 3.1 µg/mL; MIC (Micrococcus luteus, 2495): 12.5 µg/mL
